Measurements taken from patent US9249131B2, “Modulators of ATP-binding cassette transporters” (Vertex Pharmaceuticals Incorporated, priority 2003, dated 2016).

Molecular target: T1, ΔF508-CFTR (Homo sapiens, UniProt P13569, DEL508-508)
T1 construct: expressed in transfected cells; host or cells: NIH3T3 mouse fibroblasts stably expressing ΔF508-CFTR for the optical, whole-cell and single-channel assays; Fisher rat epithelial (FRT) cells for Ussing chamber follow-up
Experiment: Assays for ΔF508-CFTR correction and potentiator properties (membrane potential optical and electrophysiological methods)
Type: cell-based
Conditions: CFTR modulation; for % Activity: % Efficacy; for EC50: tested using the above methods
Procedure, shortened: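 NIH3T3 mouse fibroblasts stably expressing ΔF508-CFTR were used, with membrane potential read by DiSBAC2(3)/CC2-DMPE FRET on VIPR. Correctors: 16 h compound exposure at 37 °C, then activation with forskolin plus genistein in Cl⁻-free medium. Potentiators: cells held 24 h at 27 °C, compound added in Cl⁻-free medium, 2-10 μM forskolin 22 s later (final Cl⁻ 28 mM).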

T1 sequence (P13569 with tags, fused parts or gaps DEL508-508): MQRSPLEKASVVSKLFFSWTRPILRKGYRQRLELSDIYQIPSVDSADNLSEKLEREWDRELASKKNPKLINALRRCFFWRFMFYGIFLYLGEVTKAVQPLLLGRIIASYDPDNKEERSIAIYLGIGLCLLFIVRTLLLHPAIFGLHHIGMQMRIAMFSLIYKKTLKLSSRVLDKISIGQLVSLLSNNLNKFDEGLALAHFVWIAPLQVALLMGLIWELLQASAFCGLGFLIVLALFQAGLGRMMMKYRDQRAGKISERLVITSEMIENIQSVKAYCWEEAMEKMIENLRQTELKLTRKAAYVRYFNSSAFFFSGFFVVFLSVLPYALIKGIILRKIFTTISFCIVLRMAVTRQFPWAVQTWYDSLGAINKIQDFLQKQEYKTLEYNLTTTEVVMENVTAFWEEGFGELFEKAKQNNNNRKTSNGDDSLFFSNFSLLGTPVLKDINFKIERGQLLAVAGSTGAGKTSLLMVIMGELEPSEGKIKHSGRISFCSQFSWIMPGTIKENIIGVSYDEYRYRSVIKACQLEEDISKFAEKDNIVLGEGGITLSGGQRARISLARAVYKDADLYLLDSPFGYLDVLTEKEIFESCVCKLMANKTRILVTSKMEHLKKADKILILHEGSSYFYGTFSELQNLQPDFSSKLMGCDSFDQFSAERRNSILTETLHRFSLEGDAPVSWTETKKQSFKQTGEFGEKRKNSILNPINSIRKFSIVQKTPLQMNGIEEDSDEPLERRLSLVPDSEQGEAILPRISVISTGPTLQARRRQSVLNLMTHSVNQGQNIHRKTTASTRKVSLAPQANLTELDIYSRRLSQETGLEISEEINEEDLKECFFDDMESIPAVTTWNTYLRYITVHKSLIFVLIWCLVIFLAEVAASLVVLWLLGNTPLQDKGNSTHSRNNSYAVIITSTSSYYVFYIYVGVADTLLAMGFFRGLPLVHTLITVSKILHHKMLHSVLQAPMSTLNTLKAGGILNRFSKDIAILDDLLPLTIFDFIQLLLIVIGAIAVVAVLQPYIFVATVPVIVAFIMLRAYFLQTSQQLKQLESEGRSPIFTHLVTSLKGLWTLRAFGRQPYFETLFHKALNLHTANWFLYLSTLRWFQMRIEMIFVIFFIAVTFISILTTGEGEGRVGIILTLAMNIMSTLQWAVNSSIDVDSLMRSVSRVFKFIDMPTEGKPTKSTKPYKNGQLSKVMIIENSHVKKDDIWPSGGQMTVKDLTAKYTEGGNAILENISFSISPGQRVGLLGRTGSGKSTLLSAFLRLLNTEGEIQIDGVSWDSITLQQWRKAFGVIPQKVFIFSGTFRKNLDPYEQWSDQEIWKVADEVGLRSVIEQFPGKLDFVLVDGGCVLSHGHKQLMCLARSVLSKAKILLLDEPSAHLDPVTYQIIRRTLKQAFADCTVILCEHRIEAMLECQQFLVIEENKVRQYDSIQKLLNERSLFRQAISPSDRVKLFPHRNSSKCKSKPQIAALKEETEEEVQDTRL

Compound | % Activity | EC50 [µM]
CCC(C)C(C(=O)Nc1ncc(Cc2ccccc2C#N)s1)c1ccccc1 (centres unmarked) [compound 259] | ++ (“++” means between 25% to 100%) | < 10
N#Cc1ccccc1Cc1cnc(NC(=O)C(c2ccccc2)C2CCCC2)s1 (centres unmarked) [compound 260] | ++ (“++” means between 25% to 100%) | < 10
CC(C)C(C(=O)Nc1ncc(Cc2ccccc2C#N)s1)c1ccccc1 (centres unmarked) [compound 261] | ++ (“++” means between 25% to 100%) | < 10
CCC(C(=O)Nc1ncc(C(=O)c2ccccc2Cl)s1)c1ccccc1 (centres unmarked) [compound 262] | ++ (“++” means between 25% to 100%) | 25 to 60
CCC(C(=O)Nc1ncc(C(O)c2ccccc2Cl)s1)c1ccccc1 (centres unmarked) [compound 263] | ++ (“++” means between 25% to 100%) | < 10
CCC(C(=O)Nc1nc2ccc(S(C)(=O)=O)cc2s1)c1ccccc1 (centres unmarked) [compound 264] | ++ (“++” means between 25% to 100%) | 25 to 60
CCOc1ccc2nc(NC(=O)C(CC)c3ccccc3)sc2c1 (centres unmarked) [compound 265] | +++ (“+++” means >100%) | < 10
CCC(C(=O)Nc1nc2ccc(OC)cc2s1)c1ccccc1 (centres unmarked) [compound 266] | ++ (“++” means between 25% to 100%) | < 10
CCC(C(=O)Nc1nc2cc(C)c(C)cc2s1)c1ccccc1 (centres unmarked) [compound 267] | ++ (“++” means between 25% to 100%) | < 10
CCC(C(=O)Nc1nc2cccc(C)c2s1)c1ccccc1 (centres unmarked) [compound 268] | ++ (“++” means between 25% to 100%) | < 10
COC(=O)CC(C(=O)Nc1ncc(Cc2ccccc2Cl)s1)c1ccccc1 (centres unmarked) [compound 269] | ++ (“++” means between 25% to 100%) | < 10
CCC(C(=O)Nc1ncc(Cc2ccccc2Cl)s1)c1ccc(OC)cc1 (centres unmarked) [compound 270] | ++ (“++” means between 25% to 100%) | < 10
CC(CC(=O)Nc1ncc(Cc2ccccc2Cl)s1)c1ccccc1 (centres unmarked) [compound 271] | ++ (“++” means between 25% to 100%) | < 10
CN(C)C(Cc1ccccc1)C(=O)Nc1ncc(Cc2ccccc2Cl)s1 (centres unmarked) [compound 272] | +++ (“+++” means >100%) | < 10
CCC(C(=O)Nc1ncc(Cc2ccccc2OC)s1)c1ccc(OC)cc1 (centres unmarked) [compound 273] | ++ (“++” means between 25% to 100%) | < 10
COc1ccccc1Cc1cnc(NC(=O)CC(C)c2ccccc2)s1 (centres unmarked) [compound 274] | ++ (“++” means between 25% to 100%) | 25 to 60

Compound | % Activity | EC50 [µM]
COc1ccccc1Cc1cnc(NC(=O)C(Cc2ccccc2)N(C)C)s1 (centres unmarked) [compound 275] | ++ (“++” means between 25% to 100%) | 25 to 60
CC(CC(=O)Nc1ncc(Cc2ccccc2C#N)s1)c1ccccc1 (centres unmarked) [compound 276] | ++ (“++” means between 25% to 100%) | 25 to 60
CN(C)C(Cc1ccccc1)C(=O)Nc1ncc(Cc2ccccc2C#N)s1 (centres unmarked) [compound 277] | ++ (“++” means between 25% to 100%) | 25 to 60
CCC(C(=O)Nc1ncc(Cc2ccccc2Cl)n1C)c1ccccc1 (centres unmarked) [compound 278] | ++ (“++” means between 25% to 100%) | < 10
Cc1csc(NC(=O)C(c2ccccc2)c2ccccc2)n1 [compound 279] | ++ (“++” means between 25% to 100%) | 25 to 60
CCOC(=O)c1csc(NC(=O)C(c2ccccc2)c2ccccc2)n1 [compound 280] | ++ (“++” means between 25% to 100%) | < 10
CCOC(=O)Cc1csc(NC(=O)C(c2ccccc2)c2ccccc2)n1 [compound 281] | ++ (“++” means between 25% to 100%) | 10 to 25
COc1ncccc1Cc1cnc(NC(=O)C(c2ccccc2)c2ccccc2)s1 [compound 282] | ++ (“++” means between 25% to 100%) | < 10
CCC(C(=O)Nc1ncc(Cc2cccnc2OC)s1)c1ccccc1 (centres unmarked) [compound 283] | ++ (“++” means between 25% to 100%) | < 10
CCC(C(=O)Nc1ncc(Cc2cccc(OC)c2)s1)c1ccccc1 (centres unmarked) [compound 284] | ++ (“++” means between 25% to 100%) | < 10
CCC(C(=O)Nc1ncc(Cc2cc(F)ccc2OC)s1)c1ccccc1 (centres unmarked) [compound 285] | ++ (“++” means between 25% to 100%) | < 10
CCC(C(=O)Nc1ncc(Cc2ccc(OC)cc2)s1)c1ccccc1 (centres unmarked) [compound 286] | ++ (“++” means between 25% to 100%) | < 10
CCCc1nc(NC(=O)C(c2ccccc2)c2ccccc2)sc1C(=O)OCC [compound 287] | ++ (“++” means between 25% to 100%) | < 10
CCCc1nc(NC(=O)C(CC)c2ccccc2)sc1C(=O)OCC (centres unmarked) [compound 288] | ++ (“++” means between 25% to 100%) | < 10
CCC(C(=O)Nc1nc2c(s1)C(=O)CCC2)c1ccccc1 (centres unmarked) [compound 289] | ++ (“++” means between 25% to 100%) | 25 to 60
